Measured values: patent US10294202B2, “Pyrrolidinones as herbicides” (FMC Corporation, priority 2013, dated 2019)

How the values were obtained:
galium = experiment: Test A postemergence herbicide test; format: in vivo, Galium aparine
Procedure, shortened: (§1)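 Plants at the one- to two-leaf stage, 2–10 cm tall, grown in loam/sand pots, received postemergence sprays of the test chemicals. After about 10 days in the greenhouse, injury was scored visually against untreated controls on a 0–100 scale (0 none, 100 complete control).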

corn = experiment: Test A pre-/postemergence herbicide test; format: in vivo, Zea mays; conditions: Postemergence
Procedure, shortened: (§2)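 Scoring was visual, relative to untreated controls, on a 0–100 scale after about 10 greenhouse days. Preemergence treatment used a directed soil spray over seeded loam/sand; postemergence treatment targeted one- to two-leaf plants of 2–10 cm.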

blackgrass = experiment: Test A postemergence herbicide test; format: in vivo, Alopecurus myosuroides
Procedure, shortened: as §1

ragweed = experiment: Test A pre-/postemergence herbicide test; format: in vivo, Ambrosia elatior
Procedure, shortened: as §2

barnyardgrass [1] = experiment: Test B flooded paddy test; format: in vivo, Echinochloa crus-galli; conditions: Flood, scale of 0 to 100 where 0 is no effect and 100 is complete control
Procedure, shortened: (§3)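 Paddy-water application at a 3 cm flood, young plants having two leaves. Water level maintained; greenhouse, 13–15 days; visual 0–100 control rating.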

wheat = experiment: Test A pre-/postemergence herbicide test; format: in vivo, Triticum aestivum; conditions: Postemergence
Procedure, shortened: as §2

barnyardgrass [2] = experiment: Test A pre-/postemergence herbicide test; format: in vivo, Echinochloa crus-galli
Procedure, shortened: as §2

pigweed = experiment: Test A pre-/postemergence herbicide test; format: in vivo, Amaranthus retroflexus
Procedure, shortened: as §2

giant foxtail = experiment: Test A pre-/postemergence herbicide test; format: in vivo, Setaria faberii
Procedure, shortened: as §2

kochia = experiment: Test A pre-/postemergence herbicide test; format: in vivo, Kochia scoparia
Procedure, shortened: as §2

ducksalad = experiment: Test B flooded paddy test; format: in vivo, Heteranthera limosa; conditions: Flood, scale of 0 to 100 where 0 is no effect and 100 is complete control
Procedure, shortened: as §3

rice = experiment: Test B flooded paddy test; format: in vivo, Oryza sativa; conditions: Flood, scale of 0 to 100 where 0 is no effect and 100 is complete control
Procedure, shortened: as §3

ryegrass, Italian = experiment: Test A pre-/postemergence herbicide test; format: in vivo, Lolium multiflorum
Procedure, shortened: as §2

sedge, umbrella = experiment: Test B flooded paddy test; format: in vivo, Cyperus difformis; conditions: Flood, scale of 0 to 100 where 0 is no effect and 100 is complete control
Procedure, shortened: as §3

[3] = 125 g ai/ha, 0 to 100 scale, 0 is no effect, 100 is complete control
[4] = 125 g ai/ha, visual rating, 0 to 100 scale, 0 no effect, 100 complete control, approximately 10 days, preemergence
[5] = Postemergence, 125 g ai/ha, 0 to 100 scale, 0 is no effect, 100 is complete control
[6] = preemergence, 500 g ai/ha, 0 to 100 scale, 0 is no effect and 100 is complete control
[7] = 125 g ai/ha, 0 to 100 scale, 0 no effect, 100 complete control
[8] = Postemergence, 125 g ai/ha, 0 to 100 scale, 0 no effect, 100 complete control
[9] = preemergence, 500 g ai/ha, 0 to 100 scale
[10] = 125 g ai/ha, visual rating on 0 to 100 scale (0 no effect, 100 complete control), approx. 10 days
[11] = 500 g ai/ha, 0 to 100 scale (0 no effect, 100 complete control)
[12] = Postemergence, 125 g ai/ha, visual rating on 0 to 100 scale (0 no effect, 100 complete control), approx. 10 days
[13] = Postemergence, 500 g ai/ha, 0 to 100 scale (0 no effect, 100 complete control)
[14] = Preemergence, 125 g ai/ha, 0 to 100 scale where 0 is no effect and 100 is complete control
[15] = Preemergence, 500 g ai/ha, visual rating on 0 to 100 scale (0 no effect, 100 complete control)

COc1ccc(C2CNC(=O)C2C(=O)Nc2cccc(F)c2F)cc1C(F)(F)F (stereo not drawn) [Compound 234]
70: Plant response rating, Foxtail, Giant (giant foxtail; [4])
30: Plant response rating, Galium (galium; [3]) | Blackgrass plant response rating (0 to 100 scale, 0 is no effect, 100 is complete control) (blackgrass; 500 g ai/ha) | Kochia plant response rating (0 to 100 scale, 0 is no effect, 100 is complete control) (kochia; Postemergence, 500 g ai/ha) | Plant response rating, Ryegrass, Italian (ryegrass, Italian; [4]) | Ryegrass, Italian plant response rating (0 to 100 scale, 0 is no effect, 100 is complete control) (ryegrass, Italian; Postemergence, 500 g ai/ha) | Plant response rating, Ryegrass, Italian (ryegrass, Italian; [6])
60: Corn plant response rating (0 to 100 scale, 0 is no effect, 100 is complete control) (corn; 500 g ai/ha) | Plant response rating, Barnyardgrass (barnyardgrass [2]; [4]) | Plant response rating, Barnyardgrass (barnyardgrass [2]; [5])
90: Barnyardgrass plant response rating (0 to 100 scale, 0 is no effect, 100 is complete control) (barnyardgrass [2]; Postemergence, 500 g ai/ha) | Plant response rating, Barnyardgrass (barnyardgrass [2]; [6]) | Plant response rating, Foxtail, Giant (giant foxtail; [6])
40: Wheat plant response rating (0 to 100 scale, 0 is no effect, 100 is complete control) (wheat; 500 g ai/ha) | Plant response rating, Foxtail, Giant (giant foxtail; [5])
80: Foxtail, Giant plant response rating (0 to 100 scale, 0 is no effect, 100 is complete control) (giant foxtail; Postemergence, 500 g ai/ha)
0: Plant response rating, Corn (corn; [3]) | Plant response rating, Blackgrass (blackgrass; [3]) | Plant response rating, Ragweed (ragweed; [4]) | Plant response rating, Ragweed (ragweed; [5]) | Ragweed plant response rating (0 to 100 scale, 0 is no effect, 100 is complete control) (ragweed; Postemergence, 500 g ai/ha) | Plant response rating, Wheat (wheat; [3]) | Plant response rating, Pigweed (pigweed; [4]) | Plant response rating, Pigweed (pigweed; [5]) | Pigweed plant response rating (0 to 100 scale, 0 is no effect, 100 is complete control) (pigweed; Postemergence, 500 g ai/ha) | Plant response rating, Kochia (kochia; [5]) | Plant response rating, Rice (rice; 1000 g ai/ha) | Plant response rating, Sedge, Umbrella (sedge, umbrella; 1000 g ai/ha)
75: Plant response rating, Barnyardgrass (barnyardgrass [1]; 1000 g ai/ha)
85: Plant response rating, Ducksalad (ducksalad; 1000 g ai/ha)
20: Plant response rating, Ragweed (ragweed; [6]) | Plant response rating, Pigweed (pigweed; [6]) | Plant response rating, Kochia (kochia; [4]) | Plant response rating, Ryegrass, Italian (ryegrass, Italian; [5])
50: Galium plant response rating (0 to 100 scale, 0 is no effect, 100 is complete control) (galium; 500 g ai/ha) | Plant response rating, Kochia (kochia; [6])

Cc1ccc(C2CNC(=O)C2C(=O)Nc2ccccc2F)cc1 (racemic) [Compound 149]
10: Plant response rating, Corn (corn; [7]) | Plant response rating, Kochia (kochia; [4]) | Plant response rating, Ryegrass, Italian (ryegrass, Italian; [8])
60: Galium plant response rating (0 to 100 scale, 0 is no effect, 100 is complete control) (galium; 500 g ai/ha) | Plant response rating, Ragweed (ragweed; [4]) | Kochia plant response rating (0 to 100 scale, 0 is no effect, 100 is complete control) (kochia; Postemergence, 500 g ai/ha)
20: Wheat plant response rating (0 to 100 scale, 0 is no effect, 100 is complete control) (wheat; 500 g ai/ha) | Plant response rating, Ryegrass, Italian (ryegrass, Italian; [4])
80: Plant response rating, Ragweed (ragweed; [9]) | Barnyardgrass plant response rating (0 to 100 scale, 0 is no effect, 100 is complete control) (barnyardgrass [2]; Postemergence, 500 g ai/ha)
30: Plant response rating, Blackgrass (blackgrass; [7]) | Plant response rating, Ragweed (ragweed; [8])
100: Plant response rating, Ducksalad (ducksalad; 500 g ai/ha)
90: Plant response rating, Barnyardgrass (barnyardgrass [2]; [4]) | Plant response rating, Barnyardgrass (barnyardgrass [2]; preemergence, 500 g ai/ha, 0 to 100 scale (0 no effect, 100 complete control)) | Plant response rating, Foxtail, Giant (giant foxtail; [9])
0: Plant response rating, Wheat (wheat; [7]) | Plant response rating, Pigweed (pigweed; [4]) | Plant response rating, Pigweed (pigweed; [8]) | Pigweed plant response rating (0 to 100 scale, 0 is no effect, 100 is complete control) (pigweed; Postemergence, 500 g ai/ha) | Plant response rating, Pigweed (pigweed; [9]) | Plant response rating, Rice (rice; 500 g ai/ha) | Plant response rating, Sedge, Umbrella (sedge, umbrella; 500 g ai/ha)
70: Corn plant response rating (0 to 100 scale, 0 is no effect, 100 is complete control) (corn; 500 g ai/ha) | Plant response rating, Barnyardgrass (barnyardgrass [1]; 500 g ai/ha) | Plant response rating, Barnyardgrass (barnyardgrass [2]; [8]) | Plant response rating, Foxtail, Giant (giant foxtail; [4]) | Foxtail, Giant plant response rating (0 to 100 scale, 0 is no effect, 100 is complete control) (giant foxtail; Postemergence, 500 g ai/ha) | Plant response rating, Kochia (kochia; [9]) | Plant response rating, Ryegrass, Italian (ryegrass, Italian; [9])
50: Plant response rating, Galium (galium; [7]) | Plant response rating, Kochia (kochia; [8]) | Ryegrass, Italian plant response rating (0 to 100 scale, 0 is no effect, 100 is complete control) (ryegrass, Italian; Postemergence, 500 g ai/ha)
40: Blackgrass plant response rating (0 to 100 scale, 0 is no effect, 100 is complete control) (blackgrass; 500 g ai/ha) | Ragweed plant response rating (0 to 100 scale, 0 is no effect, 100 is complete control) (ragweed; Postemergence, 500 g ai/ha) | Plant response rating, Foxtail, Giant (giant foxtail; [8])

O=C1NCC(c2cccc(Br)c2)C1C(=O)Nc1ccc(F)cc1F (stereo not drawn) [Compound 308]
10: Plant response rating, Corn (corn; [11])
90: Foxtail, Giant plant response rating (giant foxtail; [15]) | Plant response rating, Ducksalad (ducksalad; 500 g ai/ha)
70: Plant response rating, Blackgrass (blackgrass; [11]) | Plant response rating, Barnyardgrass (barnyardgrass [1]; 500 g ai/ha) | Plant response rating, Barnyardgrass (barnyardgrass [2]; [12]) | Plant response rating, Barnyardgrass (barnyardgrass [2]; [13]) | Plant response rating, Barnyardgrass (barnyardgrass [2]; [14]) | Plant response rating, Foxtail, Giant (giant foxtail; [12])
80: Barnyardgrass plant response rating (barnyardgrass [2]; [15]) | Plant response rating, Foxtail, Giant (giant foxtail; [13]) | Plant response rating, Foxtail, Giant (giant foxtail; [14])
50: Plant response rating, Blackgrass (blackgrass; [10])
0: Plant response rating, Galium (galium; [10]) | Plant response rating, Galium (galium; [11]) | Plant response rating, Corn (corn; [10]) | Plant response rating, Ragweed (ragweed; [12]) | Plant response rating, Ragweed (ragweed; [13]) | Plant response rating, Ragweed (ragweed; [14]) | Ragweed plant response rating (ragweed; [15]) | Plant response rating, Wheat (wheat; [10]) | Plant response rating, Pigweed (pigweed; [12]) | Plant response rating, Pigweed (pigweed; [13]) | Plant response rating, Pigweed (pigweed; [14]) | Pigweed plant response rating (pigweed; [15]) | Plant response rating, Kochia (kochia; [12]) | Plant response rating, Kochia (kochia; [13]) | Plant response rating, Kochia (kochia; [14]) | Kochia plant response rating (kochia; [15]) | Plant response rating, Rice (rice; 500 g ai/ha) | Plant response rating, Ryegrass, Italian (ryegrass, Italian; [12]) | Plant response rating, Ryegrass, Italian (ryegrass, Italian; [13]) | Plant response rating, Ryegrass, Italian (ryegrass, Italian; [14]) | Ryegrass, Italian plant response rating (ryegrass, Italian; [15]) | Plant response rating, Sedge, Umbrella (sedge, umbrella; 500 g ai/ha)
20: Plant response rating, Wheat (wheat; [11])

O=C1NCC(c2ccc(OC(F)F)cc2)C1C(=O)Nc1ccccc1F (stereo not drawn) [Compound 349]
0: Plant response rating, Corn (corn; [10]) | Plant response rating, Ragweed (ragweed; [12]) | Plant response rating, Ragweed (ragweed; [14]) | Plant response rating, Wheat (wheat; [10]) | Plant response rating, Pigweed (pigweed; [12]) | Plant response rating, Pigweed (pigweed; [14]) | Plant response rating, Rice (rice; 500 g ai/ha) | Plant response rating, Ryegrass, Italian (ryegrass, Italian; [12]) | Plant response rating, Ryegrass, Italian (ryegrass, Italian; [14]) | Ryegrass, Italian plant response rating (ryegrass, Italian; [15]) | Plant response rating, Sedge, Umbrella (sedge, umbrella; 500 g ai/ha)
40: Plant response rating, Blackgrass (blackgrass; [11]) | Ragweed plant response rating (ragweed; [15]) | Plant response rating, Barnyardgrass (barnyardgrass [1]; 500 g ai/ha) | Pigweed plant response rating (pigweed; [15]) | Plant response rating, Kochia (kochia; [12])
80: Plant response rating, Barnyardgrass (barnyardgrass [2]; [12]) | Plant response rating, Foxtail, Giant (giant foxtail; [14]) | Kochia plant response rating (kochia; [15])
90: Plant response rating, Barnyardgrass (barnyardgrass [2]; [13]) | Barnyardgrass plant response rating (barnyardgrass [2]; [15]) | Plant response rating, Foxtail, Giant (giant foxtail; [13]) | Foxtail, Giant plant response rating (giant foxtail; [15]) | Plant response rating, Ducksalad (ducksalad; 500 g ai/ha)
50: Plant response rating, Kochia (kochia; [14])
70: Plant response rating, Barnyardgrass (barnyardgrass [2]; [14])
60: Plant response rating, Foxtail, Giant (giant foxtail; [12])
20: Plant response rating, Galium (galium; [10]) | Plant response rating, Corn (corn; [11]) | Plant response rating, Blackgrass (blackgrass; [10])
